Data from patent US11053204B2, “Pyrimidinyloxy benzene derivatives as herbicides” (FMC Corporation, priority 2015, dated 2021).

How the values were obtained:
Type in all cases: in vivo
[1] = system: barnyardgrass (Echinochloa crus-galli); test: Test A preemergence, visual injury rating; conditions: Echinochloa crus-galli, pre-emergence, 240 h, 0 to 100 scale (0 no effect, 100 complete control), read-out: Barnyardgrass plant response rating
Summary of the method: (§1)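 Pre- and postemergence greenhouse screen. Soil: loam + sand. Spray carrier: solvent mixture, non-phytotoxic, with surfactant. Post timing at 1–2 leaves, height 2–10 cm. Readout: visual injury on a 0–100 scale roughly 10 days after application, untreated plants as reference.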

kochia (Kochia scoparia) [2] = test: Test A preemergence, visual injury rating; conditions: Bassia scoparia, pre-emergence, 240 h, 0 to 100 scale (0 no effect, 100 complete control), read-out: Kochia plant response rating
Summary of the method: as §1

[3] = system: barnyardgrass (Echinochloa crus-galli); test: Test C postemergence, plant response rating; conditions: Echinochloa crus-galli, post-emergence
Summary of the method: (§2)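 Visual injury score, 0 = no effect, 100 = complete control, assigned against untreated controls after 13 to 15 d in the greenhouse. Compounds were applied in a surfactant-containing non-phytotoxic solvent mix, preemergence to seeded loam/sand or silt loam soil, or postemergence to 1- to 4-leaf plants (2 to 18 cm).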

[4] = system: blackgrass (Alopecurus myosuroides); test: Test C postemergence, plant response rating; conditions: Alopecurus myosuroides, post-emergence
Summary of the method: as §2

[5] = system: chickweed (common chickweed, Stellaria media); test: Test C postemergence, plant response rating; conditions: Stellaria media, post-emergence
Summary of the method: as §2

corn (Zea mays) = test: Test C postemergence, plant response rating; conditions: Zea mays, post-emergence
Summary of the method: as §2

[6] = system: crabgrass, large (large crabgrass, Digitaria sanguinalis); test: Test C postemergence, plant response rating; conditions: Digitaria sanguinalis, post-emergence
Summary of the method: as §2

[7] = system: foxtail, giant (giant foxtail, Setaria faberii); test: Test C postemergence, plant response rating; conditions: Setaria faberi, post-emergence
Summary of the method: as §2

kochia (Kochia scoparia) [8] = test: Test C postemergence, plant response rating; conditions: Bassia scoparia, post-emergence
Summary of the method: as §2

[9] = system: lambsquarters (Chenopodium album); test: Test C postemergence, plant response rating; conditions: Chenopodium album, post-emergence
Summary of the method: as §2

[10] = system: morningglory (Ipomoea coccinea); test: Test C postemergence, plant response rating; conditions: Ipomoea, post-emergence
Summary of the method: as §2

[11] = system: nutsedge, yellow (yellow nutsedge, Cyperus esculentus); test: Test C postemergence, plant response rating; conditions: Cyperus, post-emergence
Summary of the method: as §2

[12] = system: oat, wild (wild oat Avena fatua); test: Test C postemergence, plant response rating; conditions: Avena fatua, post-emergence
Summary of the method: as §2

[13] = system: oilseed rape (Brassica napus); test: Test C postemergence, plant response rating; conditions: Brassica napus, post-emergence
Summary of the method: as §2

[14] = system: ryegrass, Italian (Italian ryegrass, Lolium multiflorum); test: Test C postemergence, plant response rating; conditions: Lolium multiflorum, post-emergence
Summary of the method: as §2

soybean (Glycine max) = test: Test C postemergence, plant response rating; conditions: Glycine max, post-emergence
Summary of the method: as §2

[15] = system: wheat (winter wheat, Triticum aestivum); test: Test C postemergence, plant response rating; conditions: Triticum aestivum, post-emergence
Summary of the method: as §2

[16] = 62 g ai/ha, scale 0 to 100 (0 no effect, 100 complete control)
[17] = 125 g ai/ha, scale 0 to 100 (0 no effect, 100 complete control)

SMILES: C=CCCOC(=O)c1c(Br)cccc1Oc1ncc(Cl)cn1 [Compound 21, 3-buten-1-yl 2-bromo-6-[(5-chloro-2-pyrimidinyl)oxy]benzoate]
- pest or weed control at 125 g/ha ([1]; 125 g ai/ha): 100%
- pest or weed control at 500 g/ha ([1]; 500 g ai/ha): 100%
- pest or weed control at 125 g/ha (kochia (Kochia scoparia) [2]; 125 g ai/ha): 40%
- pest or weed control at 500 g/ha (kochia (Kochia scoparia) [2]; 500 g ai/ha): 100%
- pest or weed control at 16 g/ha ([3]; 16 g ai/ha, scale 0 to 100): 10%
- pest or weed control at 31 g/ha ([3]; 31 g ai/ha, scale 0 to 100): 10%
- pest or weed control at 62 g/ha [3, 16]: 20%
- pest or weed control at 125 g/ha [3, 17]: 20%
- pest or weed control at 16 g/ha ([4]; 16 g ai/ha, scale 0 to 100): 0%
- pest or weed control at 31 g/ha ([4]; 31 g ai/ha, scale 0 to 100): 0%
- pest or weed control at 62 g/ha [4, 16]: 5%
- pest or weed control at 125 g/ha [4, 17]: 5%
- pest or weed control at 16 g/ha ([5]; 16 g ai/ha, scale 0 to 100): 40%
- pest or weed control at 31 g/ha ([5]; 31 g ai/ha, scale 0 to 100): 50%
- pest or weed control at 62 g/ha [5, 16]: 50%
- pest or weed control at 125 g/ha [5, 17]: 80%
- Corn plant response rating (crop injury, 0 = no effect, 100 = complete kill) at 16 g/ha (corn (Zea mays); 16 g ai/ha, scale 0 to 100): 5%
- Corn plant response rating (crop injury, 0 = no effect, 100 = complete kill) at 31 g/ha (corn (Zea mays); 31 g ai/ha, scale 0 to 100): 5%
- plant injury at 62 g/ha (corn (Zea mays); [16]): 15%
- plant injury at 125 g/ha (corn (Zea mays); [17]): 20%
- pest or weed control at 16 g/ha ([6]; 16 g ai/ha, scale 0 to 100): 10%
- pest or weed control at 31 g/ha ([6]; 31 g ai/ha, scale 0 to 100): 20%
- pest or weed control at 62 g/ha [6, 16]: 25%
- pest or weed control at 125 g/ha [6, 17]: 35%
- pest or weed control at 16 g/ha ([7]; 16 g ai/ha, scale 0 to 100): 10%
- pest or weed control at 31 g/ha ([7]; 31 g ai/ha, scale 0 to 100): 10%
- pest or weed control at 62 g/ha [7, 16]: 20%
- pest or weed control at 125 g/ha [7, 17]: 15%
- pest or weed control at 16 g/ha (kochia (Kochia scoparia) [8]; 16 g ai/ha, scale 0 to 100): 60%
- pest or weed control at 31 g/ha (kochia (Kochia scoparia) [8]; 31 g ai/ha, scale 0 to 100): 50%
- pest or weed control at 62 g/ha (kochia (Kochia scoparia) [8]; [16]): 90%
- pest or weed control at 125 g/ha (kochia (Kochia scoparia) [8]; [17]): 90%
- pest or weed control at 16 g/ha ([9]; 16 g ai/ha, scale 0 to 100): 65%
- pest or weed control at 31 g/ha ([9]; 31 g ai/ha, scale 0 to 100): 60%
- pest or weed control at 62 g/ha [9, 16]: 65%
- pest or weed control at 125 g/ha [9, 17]: 85%
- pest or weed control at 16 g/ha ([10]; 16 g ai/ha, scale 0 to 100): 10%
- pest or weed control at 31 g/ha ([10]; 31 g ai/ha, scale 0 to 100): 25%
- pest or weed control at 62 g/ha [10, 16]: 40%
- pest or weed control at 125 g/ha [10, 17]: 70%
- pest or weed control at 16 g/ha ([11]; 16 g ai/ha, scale 0 to 100): 0%
- pest or weed control at 31 g/ha ([11]; 31 g ai/ha, scale 0 to 100): 0%
- pest or weed control at 62 g/ha [11, 16]: 5%
- pest or weed control at 125 g/ha [11, 17]: 10%
- pest or weed control at 16 g/ha ([12]; 16 g ai/ha, scale 0 to 100): 0%
- pest or weed control at 31 g/ha ([12]; 31 g ai/ha, scale 0 to 100): 0%
- pest or weed control at 62 g/ha [12, 16]: 5%
- pest or weed control at 125 g/ha [12, 17]: 5%
- plant injury at 16 g/ha ([13]; 16 g ai/ha, scale 0 to 100): 30%
- plant injury at 31 g/ha ([13]; 31 g ai/ha, scale 0 to 100): 40%
- plant injury at 62 g/ha [13, 16]: 50%
- plant injury at 125 g/ha [13, 17]: 30%
- pest or weed control at 16 g/ha ([14]; 16 g ai/ha, scale 0 to 100): 0%
- pest or weed control at 31 g/ha ([14]; 31 g ai/ha, scale 0 to 100): 0%
- pest or weed control at 62 g/ha [14, 16]: 0%
- pest or weed control at 125 g/ha [14, 17]: 15%
- plant injury at 16 g/ha (soybean (Glycine max); 16 g ai/ha, scale 0 to 100): 30%
- plant injury at 31 g/ha (soybean (Glycine max); 31 g ai/ha, scale 0 to 100): 40%
- plant injury at 62 g/ha (soybean (Glycine max); [16]): 60%
- plant injury at 125 g/ha (soybean (Glycine max); [17]): 60%
- plant injury at 16 g/ha ([15]; 16 g ai/ha, scale 0 to 100): 0%
- plant injury at 31 g/ha ([15]; 31 g ai/ha, scale 0 to 100): 0%
- plant injury at 62 g/ha ([15]; 62 g ai/ha, scale 0 to 100 (0 no effect, 100 complete control), read-out: Wheat plant response rating): 0%
- plant injury at 125 g/ha [15, 17]: 0%
